Test results from PubChem BioAssay (NCI).
Several values for one entry are separate records, joined by “and”; a condition that tells them apart may be missing. Identical values can stand only once.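 Where inhibition never reached the appropriate level, the endpoint shown equals the highest concentration tested. Otherwise, values were interpolated linearly from a five-concentration, 48-hour dose response in 96-well plates. TGI: total growth inhibition.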 Where a SMILES comes first, the peptide text is derived from it. The star is where a group is joined. Boc = CC(C)(C)OC(=O)*

What was measured:
Test in all cases: NCI tumour cell line growth inhibition, 48 h
M14 melanoma = system: M14 melanoma
RXF 393 renal = system: RXF 393 renal
UACC-257 melanoma = system: UACC-257 melanoma
ACHN renal = system: ACHN renal
SK-MEL-5 melanoma = system: SK-MEL-5 melanoma
K-562 leukemia = system: K-562 leukemia
IGROV1 ovarian = system: IGROV1 ovarian
MDA-MB-435 = system: MDA-MB-435
MDA-N = system: MDA-N
HOP-62 NSCLC = system: HOP-62 NSCLC

| Structure (SMILES) | TGI (M14 melanoma) | TGI (RXF 393 renal) | TGI (UACC-257 melanoma) | TGI (ACHN renal) | TGI (SK-MEL-5 melanoma) | TGI (K-562 leukemia) | TGI (IGROV1 ovarian) | TGI (MDA-MB-435) | TGI (MDA-N) | TGI (HOP-62 NSCLC) |
| --- | --- | --- | --- | --- | --- | --- | --- | --- | --- | --- |
| COc1ccc(-c2cc3[nH]nc(N)c3c(=O)o2)cc1 | > 100 µM | > 100 µM | > 100 µM | > 100 µM | > 100 µM | > 100 µM | > 100 µM | – | – | – |
| COc1ccc2nc(-c3ccc(O)cc3)sc2c1 | 47.5 µM | 40.9 µM | 39 µM | 32.5 µM | 38 µM | > 100 µM | 36.2 µM | 56 µM | 50.8 µM | – |
| O=C1CC(c2ccccc2)n2cccc21 (stereo not drawn) | > 100 µM | > 100 µM | > 100 µM | > 100 µM | > 100 µM | > 100 µM | > 100 µM | > 100 µM | – | > 100 µM |
| COC(=O)C(Cc1c[nH]c2ccccc12)NC(=O)C(Cc1c[nH]c2ccccc12)NC(=O)C(Cc1c[nH]c2ccccc12)NC(=O)C(Cc1c[nH]c2ccccc12)NC(=O)C(Cc1c[nH]c2ccccc12)NC(=O)C(Cc1c[nH]c2ccccc12)NC(=O)C(Cc1c[nH]c2ccccc12)NC(=O)C(Cc1c[nH]c2ccccc12)NC(=O)OC(C)(C)C (stereo not drawn) (Boc-WWWWWWWW-OMe; configuration not given here) | 25.1 µM | – | > 100 µM | > 100 µM | 73.3 µM | > 100 µM | > 100 µM | > 100 µM | > 100 µM | > 100 µM |
| COc1ccccc1C(=O)c1c(NCc2ccccc2)c(=O)c1=O | > 100 µM | – | > 100 µM | > 100 µM | > 100 µM | > 100 µM | 95 µM | > 100 µM | > 100 µM | > 100 µM |
| OC(c1cc(C23CC4CC(CC(C4)C2)C3)nc2c(Cl)cc(Cl)cc12)C1CCCCN1 (stereo not drawn) | 3.13 µM | 3.07 µM | 3.53 µM | 2.94 µM | – | 3.07 µM | 3.45 µM | – | – | 2.97 µM |
| CCCC(=O)OC1C(CO)OC(n2cc(F)c(=O)[nH]c2=O)C1F (stereo not drawn) | – | > 100 µM | > 100 µM | > 100 µM | > 100 µM | – | > 100 µM | > 100 µM | – | > 100 µM |
| CC(=O)Nc1c(C)cc2c(nc3n2CCC3O)c1[N+](=O)[O-] (stereo not drawn) | > 100 µM | – | > 100 µM | > 100 µM | > 100 µM | > 100 µM | > 100 µM | > 100 µM | > 100 µM | – |
| Cn1cc2ccccc2c1-c1nc(F)nc(OCC(=O)[C@H]2CCC3[C@@H]4CCC5=CC(=O)CC[C@]5(C)C4[C@@H](O)C[C@@]32C)n1 (stereo partly drawn) | 44.7 µM | 14.5 µM | 37.3 µM | 32.6 µM | 44.9 µM | 8.94 µM | 22.9 µM | – | – | 42.7 µM |
| Cc1ccccc1S(=O)(=O)Nn1cnc2ccc(S(=O)(=O)Nc3ccc(Cl)cc3)cc2c1=O | > 100 µM | – | > 100 µM | > 100 µM | – | > 100 µM | > 100 µM | > 100 µM | > 100 µM | > 100 µM |
| Cc1cc(S(=O)(=O)Nc2nc3ccccc3c(=O)n2N)c(S)cc1Cl | > 100 µM | – | > 100 µM | > 100 µM | > 100 µM | > 100 µM | > 100 µM | > 100 µM | > 100 µM | 79.7 µM |
| COC(=O)c1c2cccccc-2c(Cc2c3cccccc-3c(C(=O)OC)c2O)c1O | > 100 µM | – | > 100 µM | > 100 µM | > 100 µM | > 100 µM | > 100 µM | – | – | > 100 µM |
| Nc1nc2c3nc(Nc4ccccc4)sc3nc(=O)n2c2sc(Nc3ccccc3)nc12 | > 100 µM | > 100 µM | > 100 µM | > 100 µM | > 100 µM | > 100 µM | > 100 µM | – | – | > 100 µM |
| COc1ccc2c(c1)CCc1c-2n(CCN2CCCCC2)c2ccc(OC)cc12 | > 100 µM | – | > 100 µM | > 100 µM | > 100 µM | > 100 µM | > 100 µM | > 100 µM | > 100 µM | > 100 µM |
| CCOC(=O)c1c(N2CCOCC2)[nH]c(=O)c(C(c2ccco2)c2c(O)c(C(=O)OCC)c(N3CCOCC3)[nH]c2=O)c1O | > 100 µM | > 100 µM | > 100 µM | > 100 µM | > 100 µM | > 100 µM | – | > 100 µM | > 100 µM | > 100 µM |
| CN(C)c1nc(Cl)c2c(-c3ccccc3)c(-c3ccccc3)oc2n1 | > 100 µM | 45.2 µM | > 100 µM | > 100 µM | > 100 µM | > 100 µM | > 100 µM | > 100 µM | – | – |
| O=C(O)CN1C(=O)C(Cc2ccc(O)cc2)N=C(c2cccc(O)c2)c2ccccc21 (stereo not drawn) | > 100 µM | – | > 100 µM | > 100 µM | – | > 100 µM | > 100 µM | > 100 µM | 26 µM | > 100 µM |
| CC(=O)O[C@H]1[C@H](OC(=O)CC(C)(O)CC(=O)O)C[C@]2(C)C3=C(CCC2C1(C)C)[C@]1(C)CC[C@H]([C@H]2CC[C@H](C(C)(C)O)OC2O)[C@@]1(C)[C@@H](O)C3 (stereo partly drawn) | 33.4 µM | – | 35.4 µM | 31.2 µM | 30.9 µM | 76.5 µM | 30.8 µM | 35.1 µM | 34.3 µM | 32.7 µM |
| CO/N=C(\C)c1cccc(Nc2c3ccccc3nc3occc23)c1 | 25.7 µM | 5.87 µM | 25.6 µM | – | 19.1 µM | > 100 µM | 19.4 µM | 6 µM | 15.8 µM | 20.2 µM |
| CCN1CCC(O)(c2ccc(Cl)cc2)C(C(=O)c2ccc(Cl)cc2)C1 (stereo not drawn) | > 100 µM | > 100 µM | > 100 µM | > 100 µM | > 100 µM | > 100 µM | > 100 µM | – | – | – |
| COC(=O)C1OC(O[C@H]2CC[C@]3(C)[C@H]4CC=C5[C@@H]6CC(C)(C)CC[C@]6(C(=O)OC6OCC(O)C(O)C6OC6OC(C)C(OC7OCC(O)C(O)C7O)C(O)C6O)CC[C@@]5(C)[C@]4(C)CC[C@H]3C2(C)C)C(O)C(O)C1O (stereo partly drawn) | 28.6 µM and 32.5 µM | 37 µM and 40.7 µM | 27.4 µM and 29.7 µM | – | 31.8 µM and 32.5 µM | 64.6 µM and 62.2 µM | 75 µM and > 100 µM | 33.8 µM and 32.1 µM | 29.3 µM and 33.1 µM | 33.2 µM and 32.6 µM |
